The results in this text go back to ChEMBL document CHEMBL5335789, “Tea-break with epigallocatechin gallate derivatives - Powerful polyphenols of great potential for medicine” (Eur J Med Chem, 2023).

Assay [1] deals with U-266. Put plainly: Anticancer activity against human U-266 cells assessed as inhibition of cell growth. The class given is functional, cell-based.
Assay [2] concerns MDA-MB-231. The assay can be described thus: Cytotoxicity against human MDA-MB-231 cells assessed as cell growth inhibition incubated for 48 hrs by SRB assay. Particulars: MDA-MB-231, 48 h. It is filed as functional, cell-based. A general note: Sulforhodamine B stains cellular protein and so reports cell mass.
Assay [3] concerns U-937. Put plainly: Antiproliferative activity against human U-937 cells assessed as cell growth inhibition measured after 72 hrs. The class given is functional, cell-based. The following applies: U-937, 72 h.
The subject of assay [4] is U-937. The assay can be described thus: Antiproliferative activity against human U-937 cells measured upto 72 hrs. The class given is functional, cell-based. The following applies: U-937, 72 h.
The subject of the next assay is MCF7. Put plainly: Antiproliferative activity against human MCF7 cells assessed as reduction in cell viability incubated for 72 hrs by MTT assay. It is filed as functional, cell-based. The following applies: MCF7, 72 h.
Assay [5] in a line: Inhibition of Streptococcus sobrinus glycosyl transferase.
Assay [6] concerns MDA-MB-231. The assay can be described thus: Anticancer activity against human MDA-MB-231 cells assessed as reduction in cell viability measured after 72 hrs by MTT assay. The class given is functional. On the technique in general: Tetrazolium dyes change colour on reduction, which living cells bring about.
The test system of assay [7] is MDA-MB-231. The assay can be described thus: Cytotoxicity against human MDA-MB-231 cells assessed as reduction in cell viability measured after 24 hrs by MTT assay. Particulars: MDA-MB-231, 24 h.
In another assay the test system is LNCaP. The assay can be described thus: Antiproliferative activity against human LNCaP assessed as reduction in cell viability incubated for 72 hrs by MTT assay. The class given is functional, cell-based.
In a further assay the test system is Jurkat. The assay can be described thus: Antiproliferative activity against human Jurkat T cells assessed as inhibition of cell growth at 50 uM incubated for 24 hrs relative to control. The class given is functional. Also noted: scale not given: the % may be the effect or the level left.
The next assay deals with KB. Put plainly: Antitumor activity against human KB cells assessed as inhibition of cell growth measured upto 96 hrs in presence of thymidine by Cell titer blue assay. The class given is functional. The arrangement: scale not given: the % may be the effect or the level left. (The colour change of resazurin is a common sign of viable cells or microbes.)
The target of assay [8] is MAP kinase p38 (Homo sapiens) (UniProt O15264+Q15759+Q16539+P53778). Put plainly: Inhibition of p38-MAPK (unknown origin) at 30 uM relative to control. The class given is protein assay.
A short description of assay [9]: Inhibition of ERK (unknown origin) at 100 uM by western blot assay relative to control. The following applies: Homo sapiens.
The species named for another assay is Homo sapiens. Put plainly: Inhibition of PI3K/AKT/NF-kappaB (unknown origin) at 30 uM relative to control.
The test system of assay [10] is MDA-MB-231. The assay can be described thus: Inhibition of cell adhesion in human MDA-MB-231 cells assessed as reduction in cell adhesion at 10 uM relative to control. The class given is functional. The arrangement: scale not given: the % may be the effect or the level left.
Assay [11] deals with MDA-MB-231. Put plainly: Inhibition of cell invasion of human MDA-MB-231 cells at 10 uM incubated for 24 hrs by crystal violet staining based analysis. The class given is functional. The arrangement: scale not given: the % may be the effect or the level left.
Assay [12] relates to MDA-MB-231. The assay can be described thus: Inhibition of cell migration in human MDA-MB-231 cells measured upto 48 hrs by transwell chamber assay relative to control. It is filed as functional. Also noted: scale not given: the % may be the effect or the level left.
The test system of assay [13] is U-266. The assay can be described thus: Antiproliferative activity against human U-266 cells assessed as reduction in cell viability incubated for 96 hrs by ATPlite assay. The class given is functional, cell-based. The following applies: U-266, 96 h.

By IC50 is commonly meant the concentration at which inhibition is half-maximal. Consider `COc1ccc2c(c1)O[C@H](c1cc(OC)c(O)c(OC)c1)[C@H](OC(=O)c1cc(O)c(O)c(O)c1)C2`, for which the half-maximal inhibitory concentration (IC50) in the assay on U-266 [1] came to 0.64 µM.
As for `O=C(Oc1cc(OC(=O)c2cc(O)c(O)c(O)c2)c2ccccc2c1)c1cc(O)c(O)c(O)c1`, the IC50 with MDA-MB-231 [2] came to 77 µM.
Regarding `O=C(Nc1c(-c2ccc(O)c(O)c2)oc2ccccc2c1=O)c1ccc(O)c(O)c1`, the results for the IC50 in the assay with U-937 [3] and with U-937 [4] were 37 µM and 0.38 µM, respectively.
For `COc1cc(OC)c2c(c1)OC(c1ccccc1)[C@H](OC(=O)c1ccc(OC(C)=O)c(CC=C(C)C)c1)C2` (stereo not given in full), the 50% inhibitory concentration (IC50) in the assay on MCF7 was found to be 3.99 µM.
On to `O=c1c(O)cc([C@H]2Oc3cc(O)cc(O)c3C[C@H]2O)cc2cc(O)c(O)c(O)c12`, for which, in assay [5], the IC50 turned out to be 14 µM.
As to `O=C(Oc1ccc(OC(=O)c2cc(O)c(O)c(O)c2)c2ccccc12)c1cc(O)c(O)c(O)c1`, the 50% inhibitory concentration (IC50) with MDA-MB-231 [2] was determined as 104 µM.
Turning to `O=C(O[C@@H]1Cc2c(O)cc(O)cc2O[C@@H]1c1cc(O)c(=O)c2c(O)c(O)cc([C@H]3Oc4cc(O)cc(O)c4C[C@H]3O)c2c1)c1cc(O)c(O)c(O)c1` [THEAFLAVIN MONOGALLATES], in [5], half-maximal inhibition (IC50) was put at 7.7 µM.
For the compound `CC(=O)Oc1cc(OC(C)=O)c2c(c1)O[C@H](c1cc(OC(C)=O)c(OC(C)=O)c(OC(C)=O)c1)[C@H](OC(=O)c1cccc(F)c1)C2`, the Activity in the assay on MDA-MB-231 [6] turned out to be 70%.
By CC50 is commonly meant the concentration giving 50% cytotoxicity. As to `CC(=O)Oc1cc(OC(C)=O)c2c(c1)O[C@H](c1cc(OC(C)=O)c(OC(C)=O)c(OC(C)=O)c1)[C@H](OC(=O)c1cc(OC(C)=O)c(OC(C)OC(=O)OC(C)C)c(OC(C)=O)c1)C2` (stereo not given in full), the cytotoxic concentration (CC50) in the assay on MDA-MB-231 [7] was found to be 53.9 µM.
As for `O=C(O[C@@H]1Cc2c(F)cc(F)cc2O[C@@H]1c1ccc(O)c(O)c1)c1cc(O)c(O)c(O)c1`, in the assay with LNCaP, the IC50 turned out to be 13 µM.
Turning to `CC(=O)Oc1cc(OC(C)=O)c2c(c1)O[C@H](c1cc(OC(C)=O)c(OC(C)=O)c(OC(C)=O)c1)[C@H](OC(=O)c1ccc(F)c(F)c1)C2`, the Activity is 33% with MDA-MB-231 [6] and 90% in the assay on Jurkat.
By inhibition is commonly meant the relative decrease from the control value, in per cent. Take `O=C(O[C@@H]1Cc2c(O)cc(O)cc2O[C@@H]1c1cc(O)c(O)c(O)c1)c1cc(O)c(O)c(O)c1` [EPIGALOCATECHIN GALLATE]: the Activity is given as 70% in the assay with KB, 40% in the assay with MDA-MB-231 [10], 56% in the assay with MDA-MB-231 [11] and 40% in the assay with MDA-MB-231 [12]. Further, the inhibition came out at 45% in assay [8], 25% in assay [9] and 25% in the assay filed under Homo sapiens. The IC50 was 149 µM with MDA-MB-231 [2] and 89.5 µM in assay [5].
Consider `O=C(O[C@@H]1Cc2c(O)cc(O)cc2O[C@@H]1c1cc(O)c(=O)c2c(O)c(O)c(O)cc2c1)c1cc(O)c(O)c(O)c1`, for which 11 µM corresponded to half-maximal inhibition in [5] (IC50).
As to `CCOc1cccc(C(=O)O[C@H]2COc3cc(OC)cc(OC)c3C2)c1`, the IC50 in the assay with MCF7 was 8.19 µM.
Turning to `[N-]=[N+]=NC[C@@H]1O[C@H](c2c(O)cc(O)c3c2O[C@H](c2cc(O)c(O)c(O)c2)[C@H](OC(=O)c2cc(O)c(O)c(O)c2)C3)[C@H](O)[C@@H](O)[C@@H]1O`, in the assay with U-266 [13], the half-inhibitory concentration (IC50) amounted to 15 µM.
